Measured values taken from patent US6355799B1, “Substituted benzene compounds, process for their preparation, and herbicidal and defoliant compositions containing them” (ISK Americas Incorporated, priority 1997, dated 2002).

Columns and labels:
Assay type in all cases: in vivo
[1] = tested on: ivyleaf morningglory (Ipomoea hederacea, IPOHE); assay: Pre-emerge test, greenhouse herbicide activity screening; details: rated 14 days after application, 0 = no damage, 100 = complete death
Summary of the method: (§1)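 Compounds in acetone were track-sprayed at 187 l/ha, 15–1000 g ai/ha, onto sandy loam pots. Pre-emerge seeds were sown one day before spraying, with surface watering afterwards. Post-emerge plants were at the 2–3 leaf stage and sprayed with 0.25% v/v non-ionic surfactant. Injury was rated 0–100 at 14 days.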

[2] = tested on: barnyardgrass (Echinochloa crus-galli, ECHCG); assay: as above; details: rated 14 days after application, 0 = no damage, 100 = complete death
Summary of the method: as §1

[3] = tested on: large crabgrass (Digitaria sanguinalis, DIGSA); assay: as above; details: rated 14 days after application, 0 = no damage, 100 = complete death
Summary of the method: as §1

[4] = tested on: sicklepod (Cassia obtusifolia, CASOB); assay: as above; details: rated 14 days after application, 0 = no damage, 100 = complete death
Summary of the method: as §1

[5] = tested on: velvetleaf (Abutilon theophrasti, ABUTH); assay: as above; details: rated 14 days after application, 0 = no damage, 100 = complete death
Summary of the method: as §1

[6] = tested on: green foxtail (Setaria viridis, SETVI); assay: as above; details: rated 14 days after application, 0 = no damage, 100 = complete death
Summary of the method: as §1

[7] = tested on: johnsongrass (Sorghum halepense, SORHA); assay: as above; details: rated 14 days after application, 0 = no damage, 100 = complete death
Summary of the method: as §1

[8] = tested on: lambsquarters (Chenopodium album, CHEAL); assay: as above; details: rated 14 days after application, 0 = no damage, 100 = complete death
Summary of the method: as §1

[9] = tested on: redroot pigweed (Amaranthus retroflexus, AMARE); assay: as above; details: rated 14 days after application, 0 = no damage, 100 = complete death
Summary of the method: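 Visual ratings on a 0-100 scale (0 no damage, 100 all plants dead) were taken at 14 days after treatment. Rates of 15-1000 g ai/ha in acetone, 187 l/ha, were sprayed onto soil one day after planting (pre-emerge) or onto 2-3 leaf plants with 0.25% v/v surfactant (post-emerge).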

[10] = tested on: redroot pigweed (Amaranthus retroflexus, AMARE); assay: Post-emerge test, greenhouse herbicide activity screening; details: post-emerge, 14 days after application, rating scale 0-100
Summary of the method: (§2)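 Rating: 0–100 visual injury, 14 DAA. Application: acetone, 187 l/ha, 15–1000 g ai/ha, flat-fan track sprayer with nozzle 40–45 cm above soil or canopy. Post-emerge runs used 0.25% v/v surfactant on 2–3 leaf plants.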

[11] = tested on: ivyleaf morningglory (Ipomoea hederacea, IPOHE); assay: as above; details: post-emerge, 14 days after application, rating scale 0-100
Summary of the method: as §2

[12] = tested on: barnyardgrass (Echinochloa crus-galli, ECHCG); assay: as above; details: post-emerge, 14 days after application, rating scale 0-100
Summary of the method: as §2

[13] = tested on: large crabgrass (Digitaria sanguinalis, DIGSA); assay: as above; details: post-emerge, 14 days after application, rating scale 0-100
Summary of the method: as §2

[14] = tested on: sicklepod (Cassia obtusifolia, CASOB); assay: as above; details: post-emerge, 14 days after application, rating scale 0-100
Summary of the method: as §2

[15] = tested on: velvetleaf (Abutilon theophrasti, ABUTH); assay: as above; details: post-emerge, 14 days after application, rating scale 0-100
Summary of the method: as §2

[16] = tested on: green foxtail (Setaria viridis, SETVI); assay: as above; details: post-emerge, 14 days after application, rating scale 0-100
Summary of the method: as §2

[17] = tested on: johnsongrass (Sorghum halepense, SORHA); assay: as above; details: post-emerge, 14 days after application, rating scale 0-100
Summary of the method: as §2

[18] = tested on: lambsquarters (Chenopodium album, CHEAL); assay: as above; details: post-emerge, 14 days after application, rating scale 0-100
Summary of the method: as §2

[19] = tested on: field corn (Zea mays L., var. Dekalb 535, CORN); assay: Pre-emerge test, crop safety; details: rated 14 days after application, 0 = no damage, 100 = complete death
Summary of the method: (§3)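 Applied at 15–1000 g ai/ha from acetone in 187 l/ha spray volume. Post-emergence applications included 0.25% v/v non-ionic surfactant and reached plants sown 8–21 days before. Pre-emergence applications were incorporated by surface watering. Efficacy or crop damage was rated on a 0–100 scale after 14 days.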

[20] = tested on: upland rice (Oryza sp., var. Tebonnet, RICE); assay: Pre-emerge test, crop safety; details: rated 14 days after application, 0 = no damage, 100 = complete death
Summary of the method: as §3

[21] = tested on: field corn (Zea mays L., var. Dekalb 535, CORN); assay: Post-emerge test, crop safety; details: post-emerge, 14 days after application, rating scale 0-100
Summary of the method: as §1

[22] = tested on: upland rice (Oryza sp., var. Tebonnet, RICE); assay: Post-emerge test, crop safety; details: post-emerge, 14 days after application, rating scale 0-100
Summary of the method: as §1

Cn1c(C(F)(F)F)cc(=O)n(-c2c(F)cc(Cl)c(OCC#N)c2N(C(=O)c2ccc(F)cc2F)C(=O)c2ccc(F)cc2F)c1=O [2-45]
Pre-emerge Herbicidal Activity, phytotoxicity rating (0-100), IPOHE ([1]; 63 g ai/ha): 0
Pre-emerge Herbicidal Activity, phytotoxicity rating (0-100), IPOHE ([1]; 250 g ai/ha): 0
Pre-emerge Herbicidal Activity, phytotoxicity rating (0-100), ECHCG ([2]; 63 g ai/ha): 00
Pre-emerge Herbicidal Activity, phytotoxicity rating (0-100), ECHCG ([2]; 250 g ai/ha): 0
Pre-emerge Herbicidal Activity, phytotoxicity rating (0-100), DIGSA ([3]; 63 g ai/ha): 0
Pre-emerge Herbicidal Activity, phytotoxicity rating (0-100), DIGSA ([3]; 250 g ai/ha): 0
Pre-emerge Herbicidal Activity, phytotoxicity rating (0-100), CASOB ([4]; 63 g ai/ha): 0
Pre-emerge Herbicidal Activity, phytotoxicity rating (0-100), CASOB ([4]; 250 g ai/ha): 0
Pre-emerge Herbicidal Activity, phytotoxicity rating (0-100), ABUTH ([5]; 63 g ai/ha): 0
Pre-emerge Herbicidal Activity, phytotoxicity rating (0-100), ABUTH ([5]; 250 g ai/ha): 70
Pre-emerge Herbicidal Activity, phytotoxicity rating (0-100), SETVI ([6]; 63 g ai/ha): 0
Pre-emerge Herbicidal Activity, phytotoxicity rating (0-100), SETVI ([6]; 250 g ai/ha): 30
Pre-emerge Herbicidal Activity, phytotoxicity rating (0-100), SORHA ([7]; 63 g ai/ha): 0
Pre-emerge Herbicidal Activity, phytotoxicity rating (0-100), SORHA ([7]; 250 g ai/ha): 0
Pre-emerge Herbicidal Activity, phytotoxicity rating (0-100), CHEAL ([8]; 63 g ai/ha): 60
Pre-emerge Herbicidal Activity, phytotoxicity rating (0-100), CHEAL ([8]; 250 g ai/ha): 90
Pre-emerge Herbicidal Activity, phytotoxicity rating (0-100), AMARE ([9]; 63 g ai/ha): 70
Pre-emerge Herbicidal Activity, phytotoxicity rating (0-100), AMARE ([9]; 250 g ai/ha): 100
phytotoxicity rating AMARE ([10]; 63 g ai/ha): 10
phytotoxicity rating AMARE ([10]; 250 g ai/ha): 20
phytotoxicity rating IPOHE ([11]; 63 g ai/ha): 20
phytotoxicity rating IPOHE ([11]; 250 g ai/ha): 30
phytotoxicity rating ECHCG ([12]; 63 g ai/ha): 0
phytotoxicity rating ECHCG ([12]; 250 g ai/ha): 0
phytotoxicity rating DIGSA ([13]; 63 g ai/ha): 0
phytotoxicity rating DIGSA ([13]; 250 g ai/ha): 0
phytotoxicity rating CASOB ([14]; 63 g ai/ha): 0
phytotoxicity rating CASOB ([14]; 250 g ai/ha): 20
phytotoxicity rating ABUTH ([15]; 63 g ai/ha): 30
phytotoxicity rating ABUTH ([15]; 250 g ai/ha): 40
phytotoxicity rating SETVI ([16]; 63 g ai/ha): 0
phytotoxicity rating SETVI ([16]; 250 g ai/ha): 40
phytotoxicity rating SORHA ([17]; 63 g ai/ha): 0
phytotoxicity rating SORHA ([17]; 250 g ai/ha): 0
phytotoxicity rating CHEAL ([18]; 63 g ai/ha): 30
phytotoxicity rating CHEAL ([18]; 250 g ai/ha): 30
Pre-emerge phytotoxicity rating (0-100), crop damage, CORN ([19]; 63 g ai/ha): 0
Pre-emerge phytotoxicity rating (0-100), crop damage, CORN ([19]; 250 g ai/ha): 0
Pre-emerge phytotoxicity rating (0-100), crop damage, RICE ([20]; 63 g ai/ha): 0
Pre-emerge phytotoxicity rating (0-100), crop damage, RICE ([20]; 250 g ai/ha): 0
phytotoxicity rating CORN ([21]; 63 g ai/ha): 0
phytotoxicity rating CORN ([21]; 250 g ai/ha): 5
phytotoxicity rating RICE ([22]; 63 g ai/ha): 0
phytotoxicity rating RICE ([22]; 250 g ai/ha): 10

COc1c(Cl)cc(F)c(-n2c(=S)cc(C(F)(F)F)n(C)c2=O)c1NC(=S)c1ccc(F)cc1F [2-46]
Pre-emerge Herbicidal Activity, phytotoxicity rating (0-100), IPOHE ([1]; 63 g ai/ha): 0
Pre-emerge Herbicidal Activity, phytotoxicity rating (0-100), IPOHE ([1]; 250 g ai/ha): 60
Pre-emerge Herbicidal Activity, phytotoxicity rating (0-100), ECHCG ([2]; 63 g ai/ha): 0
Pre-emerge Herbicidal Activity, phytotoxicity rating (0-100), ECHCG ([2]; 250 g ai/ha): 50
Pre-emerge Herbicidal Activity, phytotoxicity rating (0-100), DIGSA ([3]; 63 g ai/ha): 30
Pre-emerge Herbicidal Activity, phytotoxicity rating (0-100), DIGSA ([3]; 250 g ai/ha): 70
Pre-emerge Herbicidal Activity, phytotoxicity rating (0-100), CASOB ([4]; 63 g ai/ha): 30
Pre-emerge Herbicidal Activity, phytotoxicity rating (0-100), CASOB ([4]; 250 g ai/ha): 100
Pre-emerge Herbicidal Activity, phytotoxicity rating (0-100), ABUTH ([5]; 63 g ai/ha): 50
Pre-emerge Herbicidal Activity, phytotoxicity rating (0-100), ABUTH ([5]; 250 g ai/ha): 100
Pre-emerge Herbicidal Activity, phytotoxicity rating (0-100), SETVI ([6]; 63 g ai/ha): 90
Pre-emerge Herbicidal Activity, phytotoxicity rating (0-100), SETVI ([6]; 250 g ai/ha): 100
Pre-emerge Herbicidal Activity, phytotoxicity rating (0-100), SORHA ([7]; 63 g ai/ha): 30
Pre-emerge Herbicidal Activity, phytotoxicity rating (0-100), SORHA ([7]; 250 g ai/ha): 90
Pre-emerge Herbicidal Activity, phytotoxicity rating (0-100), CHEAL ([8]; 63 g ai/ha): 100
Pre-emerge Herbicidal Activity, phytotoxicity rating (0-100), CHEAL ([8]; 250 g ai/ha): 100
Pre-emerge Herbicidal Activity, phytotoxicity rating (0-100), AMARE ([9]; 63 g ai/ha): 100
Pre-emerge Herbicidal Activity, phytotoxicity rating (0-100), AMARE ([9]; 250 g ai/ha): 100
phytotoxicity rating AMARE ([10]; 63 g ai/ha): 30
phytotoxicity rating AMARE ([10]; 250 g ai/ha): 70
phytotoxicity rating IPOHE ([11]; 63 g ai/ha): 0
phytotoxicity rating IPOHE ([11]; 250 g ai/ha): 20
phytotoxicity rating ECHCG ([12]; 63 g ai/ha): 0
phytotoxicity rating ECHCG ([12]; 250 g ai/ha): 10
phytotoxicity rating DIGSA ([13]; 63 g ai/ha): 0
phytotoxicity rating DIGSA ([13]; 250 g ai/ha): 0
phytotoxicity rating CASOB ([14]; 63 g ai/ha): 0
phytotoxicity rating CASOB ([14]; 250 g ai/ha): 0
phytotoxicity rating ABUTH ([15]; 63 g ai/ha): 50
phytotoxicity rating ABUTH ([15]; 250 g ai/ha): 100
phytotoxicity rating SETVI ([16]; 63 g ai/ha): 0
phytotoxicity rating SETVI ([16]; 250 g ai/ha): 30
phytotoxicity rating SORHA ([17]; 63 g ai/ha): 0
phytotoxicity rating SORHA ([17]; 250 g ai/ha): 0
phytotoxicity rating CHEAL ([18]; 63 g ai/ha): 10
Pre-emerge phytotoxicity rating (0-100), crop damage, CORN ([19]; 63 g ai/ha): 0
Pre-emerge phytotoxicity rating (0-100), crop damage, CORN ([19]; 250 g ai/ha): 90
Pre-emerge phytotoxicity rating (0-100), crop damage, RICE ([20]; 63 g ai/ha): 20
Pre-emerge phytotoxicity rating (0-100), crop damage, RICE ([20]; 250 g ai/ha): 70
phytotoxicity rating CORN ([21]; 63 g ai/ha): 0
phytotoxicity rating CORN ([21]; 250 g ai/ha): 20
phytotoxicity rating RICE ([22]; 63 g ai/ha): 10
phytotoxicity rating RICE ([22]; 250 g ai/ha): 30
